What was measured:
BRCA^mut+ tumors = assay: Tumor response per RECIST v1.1 (ORR, DCR, DOR, PFS), BRCA^mut+ subgroup; type: in vivo, human; details: for Patients with reduced tumor size: BRCA^mut+ subgroup; for PFS, Median (95% CI): Kaplan-Meier
Excerpt: The dose-expansion period included 3 populations: dose groups in which at least one patient achieved complete response (CR) or partial response (PR) per RECIST v1.1[16] and 1 dose group higher (evaluated for safety), as well as the dose group at the maximum tolerated dose (MTD)/recommended phase II dose (RP2D). Each of these groups included those patients in the respective dose-escalation group plus a planned additional 10 patients (approximately 20 patients in the MTD/RP2D group) with BRCA^mut+ solid tumors (ovarian, breast, or prostate cancer were preferred, and ovarian cancer could be BRCA wild type). Patients received senaparib monotherapy orally QD or BID (50-mg dose only) over each 3-week cycle until disease progression or unacceptable toxicity.
Safety was assessed by recording the incidence of dose-limiting toxicities (DLTs), and the incidence, nature, severity (graded per National Cancer Institute Common Terminology Criteria for Adverse Events version 4.03 [NCI CTCAE v4.03][18]), and relatedness of treatment-emergent adverse events (TEAEs). DLTs were predefined toxicities (Supplementary Table S2) recorded over the 7 days following the single-dose administration of senaparib and during the first treatment cycle (day 1-day 21) for each dose group in the dose-escalation period only. The MTD was defined as the maximum dose at which ≤1/6 patients experienced a DLT. Senaparib PK parameters were derived from blood samples collected from patients after the single administration, and at regular intervals during the first cycle of the dose-escalation and dose-expansion periods. Plasma concentrations of senaparib were determined using high-performance liquid chromatography-tandem mass spectrometry. Tumor response was assessed every 6 weeks per RECIST v1.1,[16] recording objective response rate (ORR), disease control rate (DCR), duration of response (DOR), and progression-free survival (PFS) by dose level for all patients and for those harboring BRCA^mut+ tumors.
There was no formal sample size calculation based on statistical hypothesis testing for this study; the planned enrolment was approximately 30-60 patients across the dose-escalation and dose-expansion cohorts. The actual number in the dose-escalation cohort was adjusted based on the number of dose cohorts required for the modified Fibonacci dose-escalation design and the determined MTD. Definitions for all analysis populations (safety, DLT, PK, and efficacy [intent-to-treat, ITT]) are provided in Supplementary Table S2. No statistical tests were performed; patient demographic and baseline characteristics, safety/tolerability, PK parameters, and efficacy were evaluated descriptively. ORR and DCR and their 95% CIs were calculated for each group using the exact probability method. Kaplan-Meier statistics were used to estimate DOR and PFS, and their 95% CIs for each dose group separately. Dose linearity was explored based on the single-dose data of area under the time-concentration curve (AUC) and maximum plasma concentration (Cmax) using the power model (Y = α × dose β) for the dose range 2-80 mg on a log-transformed scale. The following criterion was used to determine whether dose proportionality was met: if the (2-sided) 90% CI for β was wholly contained within the interval (1 + log(0.5)/log(r), 1 + log(2)/log(r)), then dose proportionality was supported. Here, r was defined as the ratio of the highest to lowest dose. All data analyses were carried out using SAS EG7.1 or higher or (for PK parameters) WinNonlin 7.0 or higher.

anticancer animal models = tested on: anticancer animal models; design: method as in doi:10.1158/1538-7445.am2022-1399; details: in vivo studies (anticancer animal models); cited from earlier work
[1] = BRCA^mut+, 26 evaluable for tumor response
[2] = BRCA^mut+, 5 mg QD, PFS evaluable n 2
[3] = BRCA^mut+, 10 mg QD, PFS evaluable n 1
[4] = BRCA^mut+, 10 mg QD, evaluable n 1
[5] = BRCA^mut+, 20 mg QD, PFS evaluable n 3
[6] = BRCA^mut+, 20 mg QD, evaluable n 2
[7] = BRCA^mut+, 60 mg QD, PFS evaluable n 4
[8] = BRCA^mut+, 60 mg QD, evaluable n 4
[9] = BRCA^mut+, 80 mg QD, DOR evaluable n 3
[10] = BRCA^mut+, 80 mg QD, PFS evaluable n 6
[11] = BRCA^mut+, 80 mg QD, evaluable n 6
[12] = BRCA^mut+, 100 mg QD, DOR evaluable n 2
[13] = BRCA^mut+, 100 mg QD, PFS evaluable n 13
[14] = BRCA^mut+, 100 mg QD, evaluable n 11
[15] = BRCA^mut+, 120 mg QD, PFS evaluable n 2
[16] = BRCA^mut+, 120 mg QD, evaluable n 2
[17] = BRCA^mut+, Total, DOR evaluable n 7
[18] = BRCA^mut+, Total, PFS evaluable n 32
[19] = BRCA^mut+, Total, evaluable n 26

In the case of `O=C(c1cc(Cn2c(=O)[nH]c(=O)c3c(F)cccc32)ccc1F)N1CCN(c2ncccn2)CC1` [Senaparib], the “Median DOR” value (BRCA^mut+ tumors; BRCA^mut+ patients, 95% CI, 39-NR) is reported as 169 days, the “Median PFS” value (BRCA^mut+ tumors; BRCA^mut+ patients, 95% CI, 79-464) is reported as 215 days and the “Patients with reduced tumor size” value (BRCA^mut+ tumors; non-ovarian (3/10)) is reported as 30.0%. The “Patients with reduced tumor size” value (BRCA^mut+ tumors; ovarian cancer (10/16)) was 62.5%, the DCR (BRCA^mut+ tumors; [1]) was 73.1% and the ORR (BRCA^mut+ tumors; [1]) was 26.9%. The “DOR: Events” value (BRCA^mut+ tumors; BRCA^mut+, 2 mg QD, DOR evaluable n 0) was 0 n (%), the “PFS: Events” value (BRCA^mut+ tumors; BRCA^mut+, 2 mg QD, PFS evaluable n 0) was 0 (0) n (%) and the “DOR: Events” value (BRCA^mut+ tumors; BRCA^mut+, 5 mg QD, DOR evaluable n 0) was 0 n (%). For the same compound, the “PFS: Events” value (BRCA^mut+ tumors; [2]) was 2 (100) n (%), the “PFS, Median (95% CI)” value (BRCA^mut+ tumors; [2]) was 254.5 (45-464) days and the “DOR: Events” value (BRCA^mut+ tumors; BRCA^mut+, 10 mg QD, DOR evaluable n 0) was 0 n (%). The “PFS: Events” value (BRCA^mut+ tumors; [3]) was 1 (100) n (%), the “PFS, Median (95% CI)” value (BRCA^mut+ tumors; [3]) was 49 (49-49) days and the Complete response (BRCA^mut+ tumors; [4]) was 0 n (%). The “DCR (complete response+partial response+stable disease)” value (BRCA^mut+ tumors; [4]) was 0 n (%), the “ORR (complete response+partial response)” value (BRCA^mut+ tumors; [4]) was 0 (0) n (%) and the Partial response (BRCA^mut+ tumors; [4]) was 0 n (%). The “Stable disease (≥42 days from cycle 1 day 1)” value (BRCA^mut+ tumors; [4]) was 0 n (%), the “DOR: Events” value (BRCA^mut+ tumors; BRCA^mut+, 20 mg QD, DOR evaluable n 1) was 0 n (%) and the “PFS: Events” value (BRCA^mut+ tumors; [5]) was 1 (33.3) n (%). For the same compound, the “PFS, Median (95% CI)” value (BRCA^mut+ tumors; [5]) was “– (39-NR)”, the Complete response (BRCA^mut+ tumors; [6]) was 0 n (%) and the “DCR (complete response+partial response+stable disease)” value (BRCA^mut+ tumors; [6]) was 1 (50.0) n (%). For the same compound, the “ORR (complete response+partial response)” value (BRCA^mut+ tumors; [6]) was 1 (50.0) n (%), the Partial response (BRCA^mut+ tumors; [6]) was 1 (50.0) n (%) and the “Stable disease (≥42 days from cycle 1 day 1)” value (BRCA^mut+ tumors; [6]) was 0 n (%). The “DOR: Events” value (BRCA^mut+ tumors; BRCA^mut+, 40 mg QD, DOR evaluable n 0) was 0 n (%), the “DOR: Events” value (BRCA^mut+ tumors; BRCA^mut+, 50 mg BID, DOR evaluable n 0) was 0 n (%) and the “PFS: Events” value (BRCA^mut+ tumors; BRCA^mut+, 50 mg BID, PFS evaluable n 1) was 0 (0) n (%). The “DOR: Events” value (BRCA^mut+ tumors; BRCA^mut+, 60 mg QD, DOR evaluable n 1) was 0 n (%), the “PFS: Events” value (BRCA^mut+ tumors; [7]) was 2 (50.0) n (%) and the “PFS, Median (95% CI)” value (BRCA^mut+ tumors; [7]) was 255 (127-NR) days. The Complete response (BRCA^mut+ tumors; [8]) was 0 n (%), the “DCR (complete response+partial response+stable disease)” value (BRCA^mut+ tumors; [8]) was 4 (100) n (%) and the “ORR (complete response+partial response)” value (BRCA^mut+ tumors; [8]) was 1 (25.0) n (%). For the same compound, the Partial response (BRCA^mut+ tumors; [8]) was 1 (25.0) n (%), the “Stable disease (≥42 days from cycle 1 day 1)” value (BRCA^mut+ tumors; [8]) was 3 (75.0) n (%) and the “DOR, Median (95% CI)” value (BRCA^mut+ tumors; [9]) was 120 (39-169) days. The “DOR: Events” value (BRCA^mut+ tumors; [9]) was 3 (100) n (%), the “PFS: Events” value (BRCA^mut+ tumors; [10]) was 5 (83.3) n (%) and the “PFS, Median (95% CI)” value (BRCA^mut+ tumors; [10]) was 167 (40-216) days. The Complete response (BRCA^mut+ tumors; [11]) was 0 n (%), the “DCR (complete response+partial response+stable disease)” value (BRCA^mut+ tumors; [11]) was 5 (83.3) n (%) and the “ORR (complete response+partial response)” value (BRCA^mut+ tumors; [11]) was 3 (50.0) n (%). The Partial response (BRCA^mut+ tumors; [11]) was 3 (50.0) n (%), the “Stable disease (≥42 days from cycle 1 day 1)” value (BRCA^mut+ tumors; [11]) was 2 (33.3) n (%) and the “DOR, Median (95% CI)” value (BRCA^mut+ tumors; [12]) was “– (169-NR)”. For the same compound, the “DOR: Events” value (BRCA^mut+ tumors; [12]) was 1 (50.0) n (%), the “PFS: Events” value (BRCA^mut+ tumors; [13]) was 5 (38.5) n (%) and the “PFS, Median (95% CI)” value (BRCA^mut+ tumors; [13]) was 289 (42-NR) days. The Complete response (BRCA^mut+ tumors; [14]) was 0 n (%), the “DCR (complete response+partial response+stable disease)” value (BRCA^mut+ tumors; [14]) was 8 (72.7) n (%) and the “ORR (complete response+partial response)” value (BRCA^mut+ tumors; [14]) was 2 (18.2) n (%). The Partial response (BRCA^mut+ tumors; [14]) was 2 (18.2) n (%), the “Stable disease (≥42 days from cycle 1 day 1)” value (BRCA^mut+ tumors; [14]) was 6 (54.5) n (%) and the “DOR: Events” value (BRCA^mut+ tumors; BRCA^mut+, 120 mg QD, DOR evaluable n 0) was 0 n (%). The “PFS: Events” value (BRCA^mut+ tumors; [15]) was 1 (50.0) n (%), the “PFS, Median (95% CI)” value (BRCA^mut+ tumors; [15]) was “– (48-NR)” and the Complete response (BRCA^mut+ tumors; [16]) was 0 n (%). For the same compound, the “DCR (complete response+partial response+stable disease)” value (BRCA^mut+ tumors; [16]) was 1 (50.0) n (%), the “ORR (complete response+partial response)” value (BRCA^mut+ tumors; [16]) was 0 (0) n (%) and the Partial response (BRCA^mut+ tumors; [16]) was 0 n (%). The “Stable disease (≥42 days from cycle 1 day 1)” value (BRCA^mut+ tumors; [16]) was 1 (50.0) n (%), the “DOR, Median (95% CI)” value (BRCA^mut+ tumors; [17]) was 169 (39-NR) days and the “DOR: Events” value (BRCA^mut+ tumors; [17]) was 4 (57.1) n (%). The “PFS: Events” value (BRCA^mut+ tumors; [18]) was 17 (53.1) n (%), the “PFS, Median (95% CI)” value (BRCA^mut+ tumors; [18]) was 215 (79-464) days and the Complete response (BRCA^mut+ tumors; [19]) was 0 n (%). The “DCR (complete response+partial response+stable disease)” value (BRCA^mut+ tumors; [19]) was 19 (73.1) n (%), the “ORR (complete response+partial response)” value (BRCA^mut+ tumors; [19]) was 7 (26.9) n (%) and the Partial response (BRCA^mut+ tumors; [19]) was 7 (26.9) n (%). The “Stable disease (≥42 days from cycle 1 day 1)” value (BRCA^mut+ tumors; [19]) was 12 (46.2) n (%) and the “Potency relative to the PARP inhibitor olaparib” value (anticancer animal models) was 20 fold.

Source: publication PMC10712727, “Safety, Tolerability, and Pharmacokinetics of Senaparib, a Novel PARP1/2 Inhibitor, in Chinese Patients With Advanced Solid Tumors: A Phase I Trial” (The Oncologist, 2023)
